≈ marks a conversion by molar mass, not a printed value. Where a SMILES comes first, the peptide text is derived from it. [ ]: non-standard residue; d: D form. The star is where a group is joined. Dmt = Cc1cc(O)cc(C)c1C[C@H](N)C(=O)O; Boc = CC(C)(C)OC(=O)*
Experiments:
Assay type in all cases: physicochemical
[1] = Preliminary single-solvent solubility, determined by HPLC (response curve)
Text: Preliminary Single-Solvent Solubility of Compound I: […]

[2] = In process precipitation results (MeOH/water); conditions: aqueous with cosolvent or surfactant or cyclodextrin
Text: In Process Precipitation Results (MeOH/Water) of Compound I: […]

[3] = Preliminary precipitation studies (MeOH/water); conditions: aqueous with cosolvent or surfactant or cyclodextrin, Normal addition, 10 mL/g, 25° C.
Text: Preliminary Precipitation Studies (MeOH/Water) of Compound I: […]

[4] = Stability and handling of the isolated zwitterionic form (statement); conditions: solid isolated from CH3OH/H2O with Na2CO3
Method: Preparation of the Zwitterionic Form of Compound II
[drawing 5] • 1. The crude HCl salt is suspended in CH3OH/H2O (1/1, v/v) • 2. The suspension is heated to 45-50° C. • 3. After the clear solution is formed, an aqueous solution of Na2CO3 (1.2 eq.) is added. During the addition, the solid begins to precipitate. • 4. The suspension is stirred for 1 h at 45° C., and then cooled to 15° C. and stirred for an additional hour. • 5. The solid is isolated by filtration and dried to provide Compound II with high purity (99.4 area %) by HPLC.
Formation of zwitterionic compound led to high purity material that was stable, easily handled, and highly crystalline.

Compound | solubility ([1]; organic solvent or mixture, solvent EtOH (SDAG-7)) [µg/mL] | solubility ([1]; organic solvent or mixture, solvent MeOAc) [µg/mL] | solubility ([1]; organic solvent or mixture, solvent THF) [µg/mL] | solubility ([1]; organic solvent or mixture, solvent iPrOAc) [µg/mL] | solubility ([1]; solvent Water) [µg/mL] | solubility ([2]; Experiment 2447-41, MeOH/Water 1:9, 13 mL/g) [µg/mL] | solubility ([2]; Experiment 2447-47, MeOH/Water 1:5, 10 mL/g) [µg/mL] | solubility ([3]; Experiment 1, MeOH/Water 1:3) [µg/mL] | solubility ([3]; Experiment 2, MeOH/Water 1:5) [µg/mL] | solubility ([3]; Experiment 3, MeOH/Water 1:9) [µg/mL] | solubility ([3]; Experiment 4, MeOH/Water 1:19) [µg/mL] | Stability of material [4]
CC(C)(C)OC(=O)NCCCC[C@H](N)C(=O)N[C@@H](Cc1ccccc1)C(N)=O [Compound I, L-Lys(Boc)-Phe-NH2] | 155000 (≈ 394 mM) | 18200 (≈ 46.4 mM) | 84500 (≈ 215 mM) | 5100 (≈ 13 mM) | 4100 (≈ 10.4 mM) | 2500 (≈ 6.37 mM) | 4200 (≈ 10.7 mM) | 7000 (≈ 17.8 mM) | 5000 (≈ 12.7 mM) | 3600 (≈ 9.17 mM) | 2700 (≈ 6.88 mM) | –
Cc1cc(O)cc(C)c1C[C@H](NC(=O)[C@@H](CCCNC(=N)N)NC(=O)OC(C)(C)C)C(=O)O [Compound II, Boc-D-Arg-DMT] (Boc-[dR]-[Dmt]-OH) | – | – | – | – | – | – | – | – | – | – | – | stable
